Converted amounts (≈) assume the structure as drawn.
Columns and labels:
Assay type in all cases: cell-based
[1] = tested on: Staphylococcus aureus 100 (ATCC 29213); experiment: MIC by broth microdilution, SA 100; settings: Staphylococcus aureus, ATCC29213, read-out: MIC SA 100
Summary of the method: (§1)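 Clinical isolates, either susceptible or resistant to natural glycopeptides, were tested by broth microdilution in Mueller-Hinton medium as NCCLS recommends.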

[2] = tested on: Staphylococcus aureus 757 (MRSA); experiment: MIC by broth microdilution, SA 757; settings: Staphylococcus aureus, MRSA, read-out: MIC SA 757
Summary of the method: as §1

[3] = tested on: Staphylococcus aureus 2012 (VISA); experiment: MIC by broth microdilution, SA 2012; settings: Staphylococcus aureus, VISA, read-out: MIC SA 2012, Staphylococcus aureus 2012 (VISA); class symbols
Summary of the method: as §1

[4] = tested on: Staphylococcus epidermidis 835; experiment: MIC by broth microdilution, SE 835; settings: Staphylococcus epidermidis, 835, read-out: MIC SE 835
Summary of the method: as §1

[5] = tested on: Staphylococcus epidermidis 831 (MRSE); experiment: MIC by broth microdilution, SE 831; settings: Staphylococcus epidermidis, MRSE, read-out: MIC SE 831
Summary of the method: as §1

[6] = tested on: Enterococcus faecalis 101 (ATCC 29212); experiment: MIC by broth microdilution, EFc 101; settings: Enterococcus faecalis, ATCC29212, read-out: MIC E FC 101, Enterococcus faecalis 101 (ATCC 29212); class symbols
Summary of the method: as §1

[7] = tested on: Enterococcus faecalis 848 (VRE, Van A); experiment: MIC by broth microdilution, EFc 848; settings: Enterococcus faecalis, VRE, read-out: MIC E FC 848, Enterococcus faecalis 848 (VRE, Van A); class symbols
Summary of the method: as §1

Enterococcus faecium 800 = experiment: MIC by broth microdilution, EFcm 800; settings: Enterococcus faecium, 800, read-out: MIC E FCM 800
Summary of the method: as §1

[8] = tested on: Enterococcus faecium 752 (VRE, Van A); experiment: MIC by broth microdilution, EFcm 752; settings: Enterococcus faecium, VRE, read-out: MIC E FCM 752, Enterococcus faecium 752 (VRE, Van A); class symbols
Summary of the method: as §1

[9] = tested on: Streptococcus pneumoniae 1195 (ATCC 49619); experiment: MIC by broth microdilution, SPNE 1195; settings: Streptococcus pneumoniae, ATCC49619, read-out: MIC S PNE 1195
Summary of the method: as §1

[10] = tested on: Streptococcus pyogenes 712; experiment: MIC by broth microdilution, SPY 712; settings: Streptococcus pyogenes, 712, read-out: MIC S PYO 712
Summary of the method: as §1

SMILES | MIC [1] [µg/mL] | MIC [2] [µg/mL] | MIC [3] [µg/mL] | MIC [4] [µg/mL] | MIC [5] [µg/mL] | MIC [6] [µg/mL] | MIC [7] [µg/mL] | MIC (Enterococcus faecium 800) [µg/mL] | MIC [8] [µg/mL] | MIC [9] [µg/mL] | MIC [10] [µg/mL]
CCCCCCc1ccc(NC(=O)Oc2cc(O)c3c(c2)[C@@H](C(=O)NC2C4CC5CC(C4)CC2C5)NC(=O)[C@H]2NC(=O)[C@H](NC(=O)[C@@H]4NC(=O)[C@H](CC(N)=O)NC(=O)[C@H](NC(=O)[C@@H](CC(C)C)NC)[C@H](O)c5ccc(c(Cl)c5)Oc5cc4cc(c5O[C@@H]4O[C@H](CO)[C@@H](O)[C@H](O)[C@H]4O[C@H]4C[C@](C)(N)[C@H](O)[C@H](C)O4)Oc4ccc(cc4Cl)[C@H]2O)c2ccc(O)c-3c2)cc1 (stereo partly shown) [Compound 332] | 1 to 2 (≈ 0.56 to 1.12 µM) | 1 to 2 (≈ 0.56 to 1.12 µM) | 4 to 8 (≈ 2.24 to 4.48 µM) | 1 to 2 (≈ 0.56 to 1.12 µM) | 0.5 to 1 (≈ 0.28 to 0.56 µM) | 1 to 2 (≈ 0.56 to 1.12 µM) | > 16 | 0.5 to 1 (≈ 0.28 to 0.56 µM) | 8 to 16 (≈ 4.48 to 8.96 µM) | 0.01 to 0.5 (≈ 0.0056 to 0.28 µM) | 0.01 to 0.5 (≈ 0.0056 to 0.28 µM)
CNCCCOc1ccc(NC(=O)Oc2cc(O)c3c(c2)[C@@H](C(=O)NC2C4CC5CC(C4)CC2C5)NC(=O)[C@H]2NC(=O)[C@H](NC(=O)[C@@H]4NC(=O)[C@H](CC(N)=O)NC(=O)[C@H](NC(=O)[C@@H](CC(C)C)NC)[C@H](O)c5ccc(c(Cl)c5)Oc5cc4cc(c5O[C@@H]4O[C@H](CO)[C@@H](O)[C@H](O)[C@H]4O[C@H]4C[C@](C)(N)[C@H](O)[C@H](C)O4)Oc4ccc(cc4Cl)[C@H]2O)c2ccc(O)c-3c2)cc1 (stereo partly shown) [Compound 333] | 4 to 8 (≈ 2.24 to 4.47 µM) | 4 to 8 (≈ 2.24 to 4.47 µM) | > 16 | 8 to 16 (≈ 4.47 to 8.94 µM) | 8 to 16 (≈ 4.47 to 8.94 µM) | 4 to 8 (≈ 2.24 to 4.47 µM) | > 16 | 2 to 4 (≈ 1.12 to 2.24 µM) | > 16 | 2 to 4 (≈ 1.12 to 2.24 µM) | 1 to 2 (≈ 0.559 to 1.12 µM)
CCCCCOc1ccc(S(=O)(=O)NCCCCNC(=O)Oc2cc(O)c3c(c2)[C@@H](C(=O)NC2C4CC5CC(C4)CC2C5)NC(=O)[C@H]2NC(=O)[C@H](NC(=O)[C@@H]4NC(=O)[C@H](CC(N)=O)NC(=O)[C@H](NC(=O)[C@@H](CC(C)C)NC)[C@H](O)c5ccc(c(Cl)c5)Oc5cc4cc(c5O[C@@H]4O[C@H](CO)[C@@H](O)[C@H](O)[C@H]4O[C@H]4C[C@](C)(N)[C@H](O)[C@H](C)O4)Oc4ccc(cc4Cl)[C@H]2O)c2ccc(O)c-3c2)cc1 (stereo partly shown) [Compound 334] | 0.01 to 0.5 (≈ 0.0052 to 0.26 µM) | 0.01 to 0.5 (≈ 0.0052 to 0.26 µM) | 1 to 2 (≈ 0.52 to 1.04 µM) | 0.01 to 0.5 (≈ 0.0052 to 0.26 µM) | 0.01 to 0.5 (≈ 0.0052 to 0.26 µM) | 0.01 to 0.5 (≈ 0.0052 to 0.26 µM) | 8 to 16 (≈ 4.16 to 8.32 µM) | 0.01 to 0.5 (≈ 0.0052 to 0.26 µM) | 0.5 to 1 (≈ 0.26 to 0.52 µM) | 0.01 to 0.5 (≈ 0.0052 to 0.26 µM) | 0.01 to 0.5 (≈ 0.0052 to 0.26 µM)
CNCCOc1ccc(CCNC(=O)Oc2cc(O)c3c(c2)[C@@H](C(=O)NC2C4CC5CC(C4)CC2C5)NC(=O)[C@H]2NC(=O)[C@H](NC(=O)[C@@H]4NC(=O)[C@H](CC(N)=O)NC(=O)[C@H](NC(=O)[C@@H](CC(C)C)NC)[C@H](O)c5ccc(c(Cl)c5)Oc5cc4cc(c5O[C@@H]4O[C@H](CO)[C@@H](O)[C@H](O)[C@H]4O[C@H]4C[C@](C)(N)[C@H](O)[C@H](C)O4)Oc4ccc(cc4Cl)[C@H]2O)c2ccc(O)c-3c2)cc1 (stereo partly shown) [Compound 335] | 0.01 to 0.5 (≈ 0.00555 to 0.277 µM) | 0.01 to 0.5 (≈ 0.00555 to 0.277 µM) | 1 to 2 (≈ 0.555 to 1.11 µM) | 0.01 to 0.5 (≈ 0.00555 to 0.277 µM) | 0.01 to 0.5 (≈ 0.00555 to 0.277 µM) | 0.01 to 0.5 (≈ 0.00555 to 0.277 µM) | > 16 | 0.01 to 0.5 (≈ 0.00555 to 0.277 µM) | 2 to 4 (≈ 1.11 to 2.22 µM) | 0.01 to 0.5 (≈ 0.00555 to 0.277 µM) | 0.01 to 0.5 (≈ 0.00555 to 0.277 µM)
CNCCCCCNC(=O)Oc1cc(O)c2c(c1)[C@@H](C(=O)NC1C3CC4CC(C3)CC1C4)NC(=O)[C@H]1NC(=O)[C@H](NC(=O)[C@@H]3NC(=O)[C@H](CC(N)=O)NC(=O)[C@H](NC(=O)[C@@H](CC(C)C)NC)[C@H](O)c4ccc(c(Cl)c4)Oc4cc3cc(c4O[C@@H]3O[C@H](CO)[C@@H](O)[C@H](O)[C@H]3O[C@H]3C[C@](C)(N)[C@H](O)[C@H](C)O3)Oc3ccc(cc3Cl)[C@H]1O)c1ccc(O)c-2c1 (stereo partly shown) [Compound 336] | 0.01 to 0.5 (≈ 0.0058 to 0.29 µM) | 0.01 to 0.5 (≈ 0.0058 to 0.29 µM) | 1 to 2 (≈ 0.58 to 1.16 µM) | 0.01 to 0.5 (≈ 0.0058 to 0.29 µM) | 0.01 to 0.5 (≈ 0.0058 to 0.29 µM) | 0.01 to 0.5 (≈ 0.0058 to 0.29 µM) | > 16 | 0.01 to 0.5 (≈ 0.0058 to 0.29 µM) | > 16 | 0.01 to 0.5 (≈ 0.0058 to 0.29 µM) | 0.01 to 0.5 (≈ 0.0058 to 0.29 µM)

From patent publication US20110015119A1, “NOVEL SEMI-SYNTHETIC GLYCOPEPTIDES AS ANTIBACTERIAL AGENTS” (LEAD THERAPEUTICS, INC., priority 2009, published 2011)
